{"source": "patent US7888329B2", "about": "“Substituted aryl piperidinylalkynyladenosines as A2AR agonists” (PGxHealth, LLC, priority 2006, dated 2011)", "key": {"human A1 AR": {"molecular_target": "T1, human A1 AR (Homo sapiens, UniProt P30542)", "T1 construct": "expressed in transfected cells; membranes", "T1 sequence (P30542 1-326)": "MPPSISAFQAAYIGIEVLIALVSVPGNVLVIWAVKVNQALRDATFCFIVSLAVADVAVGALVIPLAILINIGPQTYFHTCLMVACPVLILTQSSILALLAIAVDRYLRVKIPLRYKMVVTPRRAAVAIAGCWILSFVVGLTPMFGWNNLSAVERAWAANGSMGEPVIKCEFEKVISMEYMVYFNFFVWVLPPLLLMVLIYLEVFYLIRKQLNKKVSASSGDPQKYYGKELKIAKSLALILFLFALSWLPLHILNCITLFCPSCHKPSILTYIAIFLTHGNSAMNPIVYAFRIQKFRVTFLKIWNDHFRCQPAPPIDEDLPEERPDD", "assay": "Radioligand competition binding with 125I-ABA, membranes of CHO K1 cells stably expressing the receptor", "conditions": "Ki derived from IC50, class symbols"}, "[1]": {"system": "Purified human neutrophils", "assay": "Luminol enhanced chemiluminescence (neutrophil oxidative activity), fMLP stimulated", "assay_type": "cell-based", "conditions": "Homo sapiens, Neutrophil; read-out: Functional"}, "[2]": {"molecular_target": "T2, recombinant human A2A receptors (Homo sapiens, UniProt P29274)", "T2 construct": "expressed in transfected cells; host or cells: Sf9 insect cells infected with virus; membranes", "T2 sequence (P29274 whole entry)": "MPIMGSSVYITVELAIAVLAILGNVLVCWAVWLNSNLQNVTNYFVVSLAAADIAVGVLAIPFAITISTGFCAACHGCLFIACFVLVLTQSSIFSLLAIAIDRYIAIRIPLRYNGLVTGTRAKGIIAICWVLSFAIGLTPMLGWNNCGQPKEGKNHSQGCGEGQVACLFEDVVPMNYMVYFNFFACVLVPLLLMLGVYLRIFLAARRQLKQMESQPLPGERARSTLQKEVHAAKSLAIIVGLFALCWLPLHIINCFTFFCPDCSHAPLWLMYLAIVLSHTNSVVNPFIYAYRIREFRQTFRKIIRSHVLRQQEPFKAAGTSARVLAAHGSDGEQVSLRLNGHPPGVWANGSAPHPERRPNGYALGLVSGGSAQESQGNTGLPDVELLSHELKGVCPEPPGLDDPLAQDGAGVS", "assay": "Radioligand competition binding with 125I-APE or 125I-ZM241385, Sf9 cell membranes", "conditions": "125I-APE or 125I-ZM241385, Sf9 membranes; class symbols", "method_in_brief": "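Membranes (5 μg for A2A; 25 μg for A1) incubated with radioligand at room temperature, 3 h for agonists or 2 h for antagonists, in HE buffer with 1 U/mL adenosine deaminase and 5 mM MgCl2, ± 50 μM GTPγS. Assays ended by filtration; nonspecific binding defined with 50 μM NECA.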"}, "human A3 AR": {"molecular_target": "T3, human A3 AR (Homo sapiens, UniProt P0DMS8)", "T3 construct": "expressed in transfected cells; membranes", "T3 sequence (P0DMS8 1-318)": "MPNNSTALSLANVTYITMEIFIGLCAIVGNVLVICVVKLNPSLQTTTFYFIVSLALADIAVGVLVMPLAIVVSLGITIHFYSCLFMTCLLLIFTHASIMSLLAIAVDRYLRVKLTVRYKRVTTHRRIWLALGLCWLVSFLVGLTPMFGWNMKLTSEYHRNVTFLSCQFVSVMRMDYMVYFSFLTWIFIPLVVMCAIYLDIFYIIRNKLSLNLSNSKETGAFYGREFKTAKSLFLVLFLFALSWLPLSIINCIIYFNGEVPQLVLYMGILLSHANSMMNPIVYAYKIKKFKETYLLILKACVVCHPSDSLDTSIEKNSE", "assay": "Radioligand competition binding with 125I-ABA, membranes of HEK 293 cells stably expressing the receptor", "conditions": "Ki derived from IC50, class symbols", "method_in_brief": "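Triplicate binding with 25 μg membrane protein and 0.5-1 nM agonist radioligand in HE buffer with 1 U/mL adenosine deaminase and 5 mM MgCl2, ±50 μM GTPγS, 3 h at room temperature, then filtration. Nonspecific binding with 50 μM NECA; Ki from IC50 corrected for radioligand and competitor depletion.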"}}, "data": [{"smiles": "Nc1nc(C#CCC2CCN(C(=O)Oc3cccc(C(F)(F)F)c3)CC2)nc2c1ncn2[C@@H]1O[C@H](CO)C(O)[C@@H]1O", "note": "(stereo partly shown) [Compound 6, 2-{3-[1-((3-Trifluoromethyl)phenoxycarbonyl)piperidin-4-yl]propyn-1-yl}adenosine]", "values": [{"measurement": "Ki", "setting": "human A1 AR", "value": "< 100", "unit": "nM"}, {"measurement": "EC50", "setting": "[1]", "value": "< 10", "unit": "nM"}, {"measurement": "Ki", "setting": "[2]", "value": "< 1", "unit": "nM"}, {"measurement": "Ki", "setting": "human A3 AR", "value": "< 10", "unit": "nM"}]}]}
